PMC11342128, “Gold(I) and gold(III) carbene complexes from the marine betaine norzooanemonin: inhibition of thioredoxin reductase, antiproliferative and antimicrobial activity” (RSC Medicinal Chemistry, 2024)

Columns and labels:
Format in all cases: cell-based
[1] = test system: MDA-MB-231 breast cancer cells; assay: Antiproliferative activity, crystal violet assay; conditions: 96 h exposure, SD in parentheses, n = 3
Description: (§1) The antiproliferative potential of the gold–NHC complexes was determined in A549 lung carcinoma cells, MDA-MB-231 breast cancer cells, MCF-7 breast adenocarcinoma cells, and HT-29 colon carcinoma cells (Table 1). Vero E6 African green monkey kidney cells served as a reference cell line to check for possible tumour selectivity. Auranofin (AF) was used as an established reference drug.[15,17] […]
(§2) S2.2. Cytotoxicity and Anticancer Studies
(§3) Cell culture and cytotoxicity
(§4) Cell lines were sourced from DSMZ (German Collection of Microorganisms and Cell Cultures GmbH) and maintained through standard procedures in Dulbecco's Modified Eagle Medium (DMEM) supplemented with 10% fetal calf serum and 50 mg/L gentamycin. Antiproliferative effects were assessed using a well-established assay protocol. In brief, 100 μL volumes of A549 cells (13,243 cells per mL), HT-29 cells (14,657 cells per mL), MDA-MB-231 cells (6,613 cells per mL), or MCF-7 cells (6,917 cells per mL) were transferred into the wells of 96-well plates and incubated at 37°C/5% CO2 for 72 […]
(§5) Freshly prepared stock solutions of the compounds in DMSO were diluted with the respective cell culture medium to achieve graded concentrations (final concentration of DMSO: 0.1% v/v). After 72 hours (A549, HT-29) or 96 hours (MCF-7, MDA-MB-231) of exposure, the cell biomass was assessed through crystal violet staining, and the IC50 value was determined as the concentration causing 50% inhibition of cell proliferation compared to an untreated control. Results were calculated as the mean values of three independent experiments.

[2] = test system: HT-29 colon carcinoma cells; assay: Antiproliferative activity, crystal violet assay; conditions: 72 h exposure, SD in parentheses, n = 3
Description: as §1, §2, §3, §4, §5

[3] = test system: MCF-7 breast adenocarcinoma cells; assay: Antiproliferative activity, crystal violet assay; conditions: 96 h exposure, SD in parentheses, n = 3
Description: as §1, §2, §3, §4, §5

[4] = test system: A549 lung carcinoma cells; assay: Antiproliferative activity, crystal violet assay; conditions: 72 h exposure, SD in parentheses, n = 3
Description: as §1, §2, §3, §4, §5

[5] = test system: Escherichia coli DSM 1116; assay: Antibacterial activity (MIC, curve fitting); conditions: Table S12; ± standard error of the mean
Description: (§6) The antibacterial activity of all gold complexes was assessed against six pathogenic bacterial strains, including two Gram-positive species, i.e. Enterococcus faecium and methicillin-resistant Staphylococcus aureus (MRSA), and four Gram-negative species, i.e. Acinetobacter baumannii, Escherichia coli, Klebsiella pneumoniae, and Pseudomonas aeruginosa. Minimum inhibitory concentrations (MICs) were determined using a curve-fitting technique.
(§7) S2.1. Antibacterial Studies
(§8) Bacterial cultures were prepared by overnight aerobic incubation at 37 °C. Gram-negative strains were cultivated in Müller Hinton broth supplemented with 1% glucose at pH 7.2, while Gram-positive strains were grown in Trypticase soy yeast extract medium (TSY) with a composition of 30 g/l trypticase soy broth, 3 g/l yeast extract, and pH 7.2. The cultures were adjusted to an OD600 of 0.001, resulting in a final starting OD600 of 0.0005 for the subsequent tests. For testing, 25 μL of the prepared culture was combined with 25 μL of serially diluted test compounds in 384 well plates, following established protocols for different strains. Screening was performed at compound concentrations of 0.5, 5, and 50 µM, and for selected compounds, growth inhibition curves were recorded using DMSO stock solutions […]
(§9) Positive control compounds, namely linezolid (for MRSA strains), ciprofloxacin (for E. faecium and E. coli), and amikacin (for P. aeruginosa), were included. The maximum DMSO concentration in the assay […]
(§10) After an 18-hour incubation at 37 °C under moist conditions, the optical density at 600 nm was measured using a Fusion Universal Microplate Analyser (Perkin–Elmer, Waltham, USA). The minimum inhibitory concentration (MIC) values, representing the […]
(§11) fitting with Sigma Plot. The bacterial strains used included Gram-negative strains: Escherichia coli (DSM 1116), A. baumannii (DSM30007), K. pneumoniae (DSM111678), and Pseudomonas aeruginosa PA7 (DSM 24068); and Gram-positive strains: E. faecium (DSM20477) and Staphylococcus aureus MRSA

[6] = test system: Klebsiella pneumoniae DSM111678; assay: Antibacterial activity (MIC, curve fitting); conditions: Table S12; ± standard error of the mean
Description: as §6, §7, §8, §9, §10, §11

[7] = test system: Enterococcus faecium DSM20477; assay: Antibacterial activity (MIC, curve fitting); conditions: Table S12; ± standard error of the mean
Description: as §6, §7, §8, §9, §10, §11

[8] = test system: Pseudomonas aeruginosa DSM 24068; assay: Antibacterial activity (MIC, curve fitting); conditions: Table S12; ± standard error of the mean
Description: as §6, §7, §8, §9, §10, §11

[9] = test system: methicillin-resistant Staphylococcus aureus DSM 11822; assay: Antibacterial activity (MIC, curve fitting); conditions: Table S12; ± standard error of the mean
Description: as §6, §7, §8, §9, §10, §11

[10] = test system: Acinetobacter baumannii DSM30007; assay: Antibacterial activity (MIC, curve fitting); conditions: Table S12; ± standard error of the mean
Description: as §6, §7, §8, §9, §10, §11

| SMILES | IC50 [1] | IC50 [2] | IC50 [3] | IC50 [4] | MIC, E. coli [5] | MIC, K. pneumoniae [6] | MIC, E. faecium [7] | MIC, P. aeruginosa [8] | MIC, MRSA [9] | MIC, A. baumannii [10] |
| --- | --- | --- | --- | --- | --- | --- | --- | --- | --- | --- |
| COC(=O)c1cn(C)[c]([Au-]([Cl])([Cl])[c]2n(C)cc(C(=O)OC)[n+]2C)[n+]1C.O=S(=O)([O-])C(F)(F)F [5b] | 14.8 µM | 18.6 µM | 20 µM | 3.35 µM | > 100 µM | > 100 µM | > 100 µM | > 100 µM | > 100 µM | > 100 µM |
| CCOC(=O)c1cn(C)[c]([Au-]([Cl])([Cl])[c]2n(C)cc(C(=O)OCC)[n+]2C)[n+]1C.F[B-](F)(F)F [5c] | 2.33 µM | 4.29 µM | 3.91 µM | 0.89 µM | > 100 µM | > 100 µM | > 100 µM | > 100 µM | 23.15 ± 0 µM | > 100 µM |
| Cn1cc(C(=O)O)[n+](C)[c]1[Au-]([Cl])([Cl])[c]1n(C)cc(C(=O)O)[n+]1C.[Cl-] [5a] | > 100 µM | > 100 µM | > 100 µM | > 100 µM | > 100 µM | > 100 µM | > 100 µM | > 100 µM | > 100 µM | > 100 µM |
